Holding throughout (type): cell-based
One test concerns the target T1, CFTR ΔF508 (Homo sapiens, UniProt P13569, DEL508-508).
T1 construct: bronchial epithelial cells isolated from CF patients homozygous for the CFTR ΔF508 mutation; McGill University; Asterand; University of North Carolina hAEC-CF; host or cells: primary human bronchial epithelial cells from CF patients homozygous for ΔF508, differentiated at air-liquid interface
As to the kind of experiment: Chronic TECC assay, primary bronchial epithelial cells of CF patients homozygous for CFTR ΔF508 (corrector, co-corrector and potentiator). The settings on record: chronic TECC, AUC = full area under the curve upon forskolin stimulation; for % Activity at 1 μM (AUC**): test compound at 1 μM; for EC50: read-out: EC50 (nM) (AUC**). The procedure, abridged:
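Primary bronchial epithelial cells from ΔF508-homozygous CF patients on collagen IV-coated Transwells were chronically treated with test compound plus corrector and potentiator, which were re-added before recording. Ieq was derived from PD and Rt in NaCl-Ringer, pH 7.4, at 37° C, with apical amiloride and bilateral forskolin, recorded every 2 min over 20 min. Ieq increase was normalized to controls, and EC50 was taken from per-well concentrations.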

For test [1], the target named is T2, ΔF508-CFTR (Homo sapiens, UniProt P13569, DEL508-508).
T2 construct: host or cells: CFBE41o-, doxycycline-inducible
T2 sequence (P13569 with tags, fused parts or gaps DEL508-508): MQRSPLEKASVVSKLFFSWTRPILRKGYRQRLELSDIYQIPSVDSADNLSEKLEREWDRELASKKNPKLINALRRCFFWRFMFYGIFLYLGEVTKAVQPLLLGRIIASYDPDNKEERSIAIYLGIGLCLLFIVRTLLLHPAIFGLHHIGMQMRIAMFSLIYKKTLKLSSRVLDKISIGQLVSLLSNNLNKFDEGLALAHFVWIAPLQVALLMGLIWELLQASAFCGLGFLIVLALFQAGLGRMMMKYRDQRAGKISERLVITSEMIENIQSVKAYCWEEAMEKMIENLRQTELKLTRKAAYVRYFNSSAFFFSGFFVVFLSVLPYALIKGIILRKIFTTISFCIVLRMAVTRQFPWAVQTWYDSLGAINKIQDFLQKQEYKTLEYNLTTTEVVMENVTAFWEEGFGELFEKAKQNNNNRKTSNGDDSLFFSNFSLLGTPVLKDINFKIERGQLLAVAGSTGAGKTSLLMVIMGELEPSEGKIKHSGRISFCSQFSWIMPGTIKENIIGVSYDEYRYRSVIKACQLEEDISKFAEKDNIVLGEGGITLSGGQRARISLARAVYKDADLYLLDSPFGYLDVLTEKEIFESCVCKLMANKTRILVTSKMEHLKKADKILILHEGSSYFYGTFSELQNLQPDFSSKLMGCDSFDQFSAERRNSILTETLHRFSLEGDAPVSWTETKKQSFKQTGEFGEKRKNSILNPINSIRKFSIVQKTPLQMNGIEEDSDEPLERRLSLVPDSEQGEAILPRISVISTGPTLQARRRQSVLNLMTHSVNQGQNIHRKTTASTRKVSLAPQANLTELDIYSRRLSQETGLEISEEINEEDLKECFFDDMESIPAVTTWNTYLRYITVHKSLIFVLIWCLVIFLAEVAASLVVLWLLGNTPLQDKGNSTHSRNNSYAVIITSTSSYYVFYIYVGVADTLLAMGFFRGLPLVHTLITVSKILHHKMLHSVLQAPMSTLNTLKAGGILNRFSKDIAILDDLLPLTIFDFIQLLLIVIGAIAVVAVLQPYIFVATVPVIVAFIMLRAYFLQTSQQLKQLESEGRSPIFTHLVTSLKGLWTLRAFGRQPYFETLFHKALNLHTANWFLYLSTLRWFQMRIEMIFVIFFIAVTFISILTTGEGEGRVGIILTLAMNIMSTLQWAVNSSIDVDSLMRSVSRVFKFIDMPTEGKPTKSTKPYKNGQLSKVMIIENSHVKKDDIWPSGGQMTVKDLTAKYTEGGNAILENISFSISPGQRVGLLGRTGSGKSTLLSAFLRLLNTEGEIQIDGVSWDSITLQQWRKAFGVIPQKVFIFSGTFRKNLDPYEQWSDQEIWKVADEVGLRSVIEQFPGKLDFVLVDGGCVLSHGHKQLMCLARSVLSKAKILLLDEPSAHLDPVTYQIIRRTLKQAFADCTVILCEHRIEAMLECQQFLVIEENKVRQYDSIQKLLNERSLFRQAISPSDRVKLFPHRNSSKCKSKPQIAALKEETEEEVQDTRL
Nature of the test: CFTR cell surface levels using HRP-tagged ΔF508-CFTR expressing CFBE cells, in the presence of a co-corrector. Conditions: HRP-tagged ΔF508-CFTR CFBE cells, in the presence of 3 μM co-corrector; for EC50: read-out: EC50. The method, boiled down: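 Chemiluminescent read-out of surface HRP (15 min, dark) after PBS washes. Activity is normalized as 100×(sample−DMSO)/(3 μM co-corrector alone−DMSO).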

The target of test [2] is T2, ΔF508-CFTR. As to the kind of experiment: CFTR cell surface levels using HRP-tagged ΔF508-CFTR expressing CFBE cells, intrinsic corrector capacity. On the set-up: % Activation: concentration or dose not given beside the values. Conditions: HRP-tagged ΔF508-CFTR expressing CFBE41o- cells, compound alone (intrinsic corrector capacity), 20 hours at 33° C.; for EC50: read-out: EC50. The procedure, abridged:
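Read-out: chemiluminescent HRP activity of ECL4-HRP-tagged ΔF508-CFTR at the cell surface, 15 min substrate in dark. Normalized as 100×(sample−DMSO)/(positive control−DMSO).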

T1 sequence (P13569 with tags, fused parts or gaps DEL508-508): as above

As to `CS(=O)(=O)NC(=O)c1cc(N2CCC(CO)CC2)c2c(C3CCC3)nn(-c3ccccc3)c2n1` [Compound 244, 3-cyclobutyl-4-[4-(hydroxymethyl)piperidin-1-yl]-N-(methanesulfonyl)-1-phenyl-1H-pyrazolo[3,4-b]pyridine-6-carboxamide], the “% Activity at 1 μM (AUC**)” value at CFTR ΔF508 came out at 238.89%. Further, at ΔF508-CFTR [1], the “% Activation” value is 290.6% and the EC50 is 413 nM. Further, at ΔF508-CFTR [2], the “% Activation” value was 182.7% and the EC50 was 381 nM.

`COCC1CCN(c2cc(C(=O)NS(=O)(=O)c3cnn(C)c3)nc3c2c(C2CCC2)nn3-c2ccccc2)CC1` [Compound 245, 3-cyclobutyl-4-[4-(methoxymethyl)piperidin-1-yl]-N-(1-methyl-1H-pyrazole-4-sulfonyl)-1-phenyl-1H-pyrazolo[3,4-b]pyridine-6-carboxamide]: the “% Activity at 1 μM (AUC**)” value at CFTR ΔF508 is given as 628.25%. Also, the “% Activation” value on ΔF508-CFTR [1] stood at 460%; at ΔF508-CFTR [2], 228%. The EC50 on ΔF508-CFTR [1] came out at 694 nM; at ΔF508-CFTR [2], 495 nM.

For the compound `COCCN(CCOC)c1ccc(-c2cc(C(=O)NS(C)(=O)=O)nc3c2c(C2CCC2)nn3-c2ccccc2)cn1` [Compound 246, 4-{6-[bis(2-methoxyethyl)amino]pyridin-3-yl}-3-cyclobutyl-N-(methanesulfonyl)-1-phenyl-1H-pyrazolo[3,4-b]pyridine-6-carboxamide], on CFTR ΔF508, the EC50 was 61 nM and the “% Activity at 1 μM (AUC**)” value worked out at 301.36%. On ΔF508-CFTR [1], the “% Activation” value was 331.65% and the EC50 stood at 77.3 nM. Further, on ΔF508-CFTR [2], the “% Activation” value turned out to be 112.1% and the EC50 was determined as 371 nM.

As to `COCC1(OC)CCN(c2cc(C(=O)NS(C)(=O)=O)nc3c2c(C2CCC2)nn3-c2ccccc2)CC1` [Compound 247, 3-cyclobutyl-N-(methanesulfonyl)-4-[4-methoxy-4-(methoxymethyl)piperidin-1-yl]-1-phenyl-1H-pyrazolo[3,4-b]pyridine-6-carboxamide], on CFTR ΔF508, the EC50 was 81 nM and the “% Activity at 1 μM (AUC**)” value was determined as 422.93%. Also, at ΔF508-CFTR [1], the “% Activation” value is listed as 281.7% and the 50% effective concentration (EC50) came out at 221 nM. Besides, at ΔF508-CFTR [2], the “% Activation” value was found to be 126.8% and the half-maximal effective concentration (EC50) was 460 nM.

For the compound `COCC1CCN(c2cc(C(=O)NS(C)(=O)=O)nc3c2c(C(C)C)nn3-c2ccnc(N3CCOCC3)c2)CC1` [Compound 248, N-(methanesulfonyl)-4-[4-(methoxymethyl)piperidin-1-yl]-1-[2-(morpholin-4-yl)pyridin-4-yl]-3-(propan-2-yl)-1H-pyrazolo[3,4-b]pyridine-6-carboxamide], the “% Activity at 1 μM (AUC**)” value on CFTR ΔF508 came to 275.96%. On ΔF508-CFTR [1], the “% Activation” value is listed as 450.6% and the concentration giving a half-maximal response (EC50) came out at 221 nM. In addition, at ΔF508-CFTR [2], the “% Activation” value is given as 234.6% and the EC50 came to 371 nM.

For `COCCS(=O)(=O)NC(=O)c1cc(N2CCC(COC)CC2)c2c(C(C)C)nn(-c3ccnc(N4CCOCC4)c3)c2n1` [Compound 249, N-(2-methoxyethanesulfonyl)-4-[4-(methoxymethyl)piperidin-1-yl]-1-[2-(morpholin-4-yl)pyridin-4-yl]-3-(propan-2-yl)-1H-pyrazolo[3,4-b]pyridine-6-carboxamide], the “% Activity at 1 μM (AUC**)” value on CFTR ΔF508 turned out to be 271.29%. Also, on ΔF508-CFTR [1], the “% Activation” value stood at 468.15% and the concentration giving a half-maximal response (EC50) was 231 nM. In addition, on ΔF508-CFTR [2], the “% Activation” value came to 187.6% and the EC50 was determined as 371 nM.

With `COCC1CCN(c2cc(C(=O)NS(=O)(=O)c3cn(C)c(C)n3)nc3c2c(C2CCC2)nn3-c2ccccc2)CC1` [Compound 250, 3-cyclobutyl-N-(1,2-dimethyl-1H-imidazole-4-sulfonyl)-4-[4-(methoxymethyl)piperidin-1-yl]-1-phenyl-1H-pyrazolo[3,4-b]pyridine-6-carboxamide], on CFTR ΔF508, the “% Activity at 1 μM (AUC**)” value is 331.21%. Further, on ΔF508-CFTR [1], the “% Activation” value was 440.4% and the 50% effective concentration (EC50) worked out at 372 nM. At ΔF508-CFTR [2], the “% Activation” value turned out to be 232.7% and the EC50 was 514 nM.

With `COCCS(=O)(=O)NC(=O)c1cc(N2CCC(COC)CC2)c2c(C(C)C)nn(C3CCCCC3)c2n1` [Compound 251, 1-cyclohexyl-N-(2-methoxyethanesulfonyl)-4-[4-(methoxymethyl)piperidin-1-yl]-3-(propan-2-yl)-1H-pyrazolo[3,4-b]pyridine-6-carboxamide], the “% Activity at 1 μM (AUC**)” value at CFTR ΔF508 was 336.34%. For the same compound, at ΔF508-CFTR [1], the “% Activation” value is 488.7% and the EC50 worked out at 367 nM. In addition, on ΔF508-CFTR [2], the “% Activation” value is 273.3% and the EC50 was found to be 634 nM.

With `COCCN(CCOC)c1ccc(-c2cc(C(=O)NS(C)(=O)=O)nc3c2c(C(C)C)nn3-c2ccnc(N3CCOCC3)c2)cn1` [Compound 252, 4-{6-[bis(2-methoxyethyl)amino]pyridin-3-yl}-N-(methanesulfonyl)-1-[2-(morpholin-4-yl)pyridin-4-yl]-3-(propan-2-yl)-1H-pyrazolo[3,4-b]pyridine-6-carboxamide], at CFTR ΔF508, the “% Activity at 1 μM (AUC**)” value amounted to 248.51%. In addition, at ΔF508-CFTR [1], the “% Activation” value amounted to 310.75% and the EC50 was 1690 nM. At ΔF508-CFTR [2], the “% Activation” value is 115.2% and the EC50 turned out to be 396 nM.

`COCCS(=O)(=O)NC(=O)c1cc(N2CCC(COC)CC2)c2c(C(C)C)nn(CC3CCC3)c2n1` [Compound 263, 1-(cyclobutylmethyl)-N-(2-methoxyethanesulfonyl)-4-[4-(methoxymethyl)piperidin-1-yl]-3-(propan-2-yl)-1H-pyrazolo[3,4-b]pyridine-6-carboxamide]: at CFTR ΔF508, the concentration giving a half-maximal response (EC50) came out at 77 nM and the “% Activity at 1 μM (AUC**)” value is listed as 399.85%. At ΔF508-CFTR [1], the “% Activation” value was found to be 475.45% and the half-maximal effective concentration (EC50) is 404 nM. For the same compound, at ΔF508-CFTR [2], the “% Activation” value amounted to 260.1% and the 50% effective concentration (EC50) turned out to be 445 nM.

In the case of `COCC1CCN(c2cc(C(=O)NS(=O)(=O)CCN3CCOCC3)nc3c2c(C2CCC2)nn3-c2ccccc2)CC1` [Compound 267, 3-cyclobutyl-4-[4-(methoxymethyl)piperidin-1-yl]-N-[2-(morpholin-4-yl)ethanesulfonyl]-1-phenyl-1H-pyrazolo[3,4-b]pyridine-6-carboxamide], the EC50 came to 130 nM on CFTR ΔF508, 57.1 nM on ΔF508-CFTR [1] and 172 nM at ΔF508-CFTR [2]. For the same compound, the “% Activation” value on ΔF508-CFTR [1] came out at 433%; at ΔF508-CFTR [2], 274.8%.

As for `COCCS(=O)(=O)NC(=O)c1cc(OCC2(C)COC2)c2c(C3CCC3)nn(-c3ccccc3)c2n1` [Compound 269, 3-cyclobutyl-N-(2-methoxyethanesulfonyl)-4-[(3-methyloxetan-3-yl)methoxy]-1-phenyl-1H-pyrazolo[3,4-b]pyridine-6-carboxamide], the “% Activity at 1 μM (AUC**)” value on CFTR ΔF508 was 172.35%. Also, the entries for the “% Activation” value on ΔF508-CFTR [1] and on ΔF508-CFTR [2] were 275.45% and 120.6%, respectively. Besides, the concentration for a half-maximal effect (EC50) at ΔF508-CFTR [1] is 97.2 nM; at ΔF508-CFTR [2], 246 nM.

Consider `CC(C)N1CCN(c2cc(C(=O)NS(C)(=O)=O)nc3c2c(C2CCC2)nn3-c2ccccc2)CC1` [Compound 270, 3-cyclobutyl-N-(methanesulfonyl)-1-phenyl-4-[4-(propan-2-yl)piperazin-1-yl]-1H-pyrazolo[3,4-b]pyridine-6-carboxamide], for which, on CFTR ΔF508, the concentration giving a half-maximal response (EC50) was 297 nM and the “% Activity at 1 μM (AUC**)” value is 250%. For the same compound, at ΔF508-CFTR [1], the “% Activation” value is on record as 327.9% and the EC50 was determined as 731 nM. For the same compound, at ΔF508-CFTR [2], the “% Activation” value turned out to be 161.5% and the EC50 turned out to be 1490 nM.

As for `COCC1CCN(c2cc(C(=O)NS(=O)(=O)CCCN3CCOCC3)nc3c2c(C(C)C)nn3-c2ccc(F)cc2)CC1` [Compound 272, 1-(4-fluorophenyl)-4-[4-(methoxymethyl)piperidin-1-yl]-N-[3-(morpholin-4-yl)propane-1-sulfonyl]-3-(propan-2-yl)-1H-pyrazolo[3,4-b]pyridine-6-carboxamide], the “% Activity at 1 μM (AUC**)” value on CFTR ΔF508 is 285.35%. Also, the figures for the “% Activation” value on ΔF508-CFTR [1] and on ΔF508-CFTR [2] were 451.2% and 268.2%, respectively. Further, the EC50 at ΔF508-CFTR [1] was 43.3 nM; at ΔF508-CFTR [2], 96.5 nM.

Consider `COCC1CCN(c2cc(C(=O)NS(=O)(=O)CCN(C)C)nc3c2c(C2CCC2)nn3-c2ccccc2)CC1` [Compound 273, 3-cyclobutyl-N-[2-(dimethylamino)ethanesulfonyl]-4-[4-(methoxymethyl)piperidin-1-yl]-1-phenyl-1H-pyrazolo[3,4-b]pyridine-6-carboxamide], for which, at CFTR ΔF508, the “% Activity at 1 μM (AUC**)” value is on record as 197.06%. On ΔF508-CFTR [1], the “% Activation” value was determined as 344.05% and the 50% effective concentration (EC50) was determined as 111 nM. At ΔF508-CFTR [2], the “% Activation” value came to 182.4% and the EC50 is 562 nM.

Broadly, the EC50 is the concentration that produces a half-maximal response.

Values taken from patent US10259810B2, “N-sulfonylated pyrazolo[3,4-b]pyridin-6-carboxamides and method of use” (AbbVie S.à.r.l., priority 2015, dated 2019).
